Read-outs that look alike come from different tables or passages of the source.
What was measured:
liver = details: mouse, in vivo, ip, 3 mg/kg
HT-22 cells = experiment: Neuroprotection against glutamate-induced oxidative stress in HT-22 cells; format: cell-based, mouse
[1] = tested on: Aβ25–35-induced learning impairments in mice; details: mouse, in vivo, ip
hCB1R = hCB1R (Homo sapiens, UniProt P21554); details: CHO-K1 cells, hCB1 and Gαq16
hAChE = hAChE (Homo sapiens, UniProt P22303); format: biochemical
hAChE, sequence (P22303 32-614): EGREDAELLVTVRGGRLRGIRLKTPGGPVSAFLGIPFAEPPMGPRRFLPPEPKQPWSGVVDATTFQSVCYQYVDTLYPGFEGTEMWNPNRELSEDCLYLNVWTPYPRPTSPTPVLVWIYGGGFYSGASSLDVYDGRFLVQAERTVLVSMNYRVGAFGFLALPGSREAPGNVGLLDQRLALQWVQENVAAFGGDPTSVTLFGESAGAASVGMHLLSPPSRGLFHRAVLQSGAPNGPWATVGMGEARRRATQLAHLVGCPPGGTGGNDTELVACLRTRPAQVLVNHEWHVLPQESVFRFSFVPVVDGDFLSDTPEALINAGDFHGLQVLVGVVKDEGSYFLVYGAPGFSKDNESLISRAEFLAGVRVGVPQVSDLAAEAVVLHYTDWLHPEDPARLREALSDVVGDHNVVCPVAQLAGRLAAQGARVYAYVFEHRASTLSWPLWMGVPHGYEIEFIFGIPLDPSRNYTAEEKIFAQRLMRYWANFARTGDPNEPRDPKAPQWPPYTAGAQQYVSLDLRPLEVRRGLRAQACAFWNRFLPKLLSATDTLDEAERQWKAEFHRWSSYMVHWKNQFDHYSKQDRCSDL

Aβ42 = Aβ42 (Homo sapiens, UniProt P05067); experiment: Inhibition of Aβ42 self-aggregation, thioflavin T fluorescence assay; format: biochemical; details: 50 μM inhibitor, 50 μM Aβ42 (1:1)
Aβ42, sequence (P05067 672-713): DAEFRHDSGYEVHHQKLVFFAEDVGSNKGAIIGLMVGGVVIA

hCB2R [2] = target: T1, hCB2R (Homo sapiens, UniProt P34972); details: calcium mobilization
T1 sequence (P34972 whole entry): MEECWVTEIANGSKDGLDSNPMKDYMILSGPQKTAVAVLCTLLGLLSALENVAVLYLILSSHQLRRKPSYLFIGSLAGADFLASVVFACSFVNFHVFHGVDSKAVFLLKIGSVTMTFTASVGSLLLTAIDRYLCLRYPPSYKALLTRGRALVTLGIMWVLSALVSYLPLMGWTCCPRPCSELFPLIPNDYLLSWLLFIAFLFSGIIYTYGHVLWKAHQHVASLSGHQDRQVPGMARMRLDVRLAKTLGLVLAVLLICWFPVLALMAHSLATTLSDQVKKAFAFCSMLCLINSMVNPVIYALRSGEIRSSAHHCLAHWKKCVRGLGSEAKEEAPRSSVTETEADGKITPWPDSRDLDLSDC

[3] = target: hAChE-induced Aβ40 aggregation (Homo sapiens, UniProt P22303); format: biochemical; details: [I] = 100 μM; Aβ40/hAChE 100:1
hAChE-induced Aβ40 aggregation, sequence (P22303 32-614): as the sequence (P22303 32-614) above

[4] = tested on: U266 myeloma cells (cAMP-regulated MIF and STAT-3 genes, hCB2R)
[5] = tested on: murine microglial cell line N9
μ-opioid receptor (MOR) = μ-opioid receptor (MOR) (Homo sapiens, UniProt P35372)
μ-opioid receptor (MOR), sequence (P35372 whole entry): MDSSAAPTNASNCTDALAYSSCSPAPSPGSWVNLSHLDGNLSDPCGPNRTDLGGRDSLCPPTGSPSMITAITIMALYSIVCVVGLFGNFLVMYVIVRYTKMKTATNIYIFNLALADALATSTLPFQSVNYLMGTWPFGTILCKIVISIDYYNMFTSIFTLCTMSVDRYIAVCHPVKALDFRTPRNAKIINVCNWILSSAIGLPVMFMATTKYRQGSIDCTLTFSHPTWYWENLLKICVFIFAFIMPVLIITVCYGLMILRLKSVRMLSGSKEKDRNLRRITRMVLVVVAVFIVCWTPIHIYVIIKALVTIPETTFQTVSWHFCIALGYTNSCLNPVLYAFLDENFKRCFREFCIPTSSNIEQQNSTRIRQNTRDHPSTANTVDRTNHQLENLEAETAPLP

hCB2R [6] = target: T1, hCB2R
[7] = HT-22 cells, 5 mM glutamate, 24 h, MTT

hCB1R, sequence (P21554 whole entry): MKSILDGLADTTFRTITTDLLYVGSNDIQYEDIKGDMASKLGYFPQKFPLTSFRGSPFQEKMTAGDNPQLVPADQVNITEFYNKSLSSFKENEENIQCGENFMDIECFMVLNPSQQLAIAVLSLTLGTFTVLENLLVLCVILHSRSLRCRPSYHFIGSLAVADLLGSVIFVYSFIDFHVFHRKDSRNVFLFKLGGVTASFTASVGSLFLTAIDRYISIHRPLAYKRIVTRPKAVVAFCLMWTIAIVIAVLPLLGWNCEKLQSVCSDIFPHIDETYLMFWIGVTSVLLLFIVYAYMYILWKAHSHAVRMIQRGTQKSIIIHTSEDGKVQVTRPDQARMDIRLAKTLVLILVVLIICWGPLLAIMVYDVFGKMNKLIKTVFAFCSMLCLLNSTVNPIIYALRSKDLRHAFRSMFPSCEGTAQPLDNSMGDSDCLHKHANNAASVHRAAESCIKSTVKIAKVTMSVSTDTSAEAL

CCOc1ccc(Cc2nc3cc(C(=O)N(CC)CC)ccc3n2CCCCCNc2c3c(nc4ccccc24)CCCC3)cc1 [3d, 2-(4-Ethoxybenzyl)-N,N-diethyl-1-(5-((1,2,3,4-tetrahydroacridin-9-yl)amino)pentyl)-1H-benzo[d]imidazole-5-carboxamide]
necrosis positive/specimen (liver): 5/6 | necrosis reported area % (liver): 5–15% | neuroprotective behavior (in words) (HT-22 cells): none

CCOc1ccc(Cc2nc3cc(C(=O)N(CC)CC)ccc3n2CCCCCCNc2c3c(nc4ccccc24)CCCC3)cc1 [3e, 2-(4-Ethoxybenzyl)-N,N-diethyl-1-(6-((1,2,3,4-tetrahydroacndin-9-yl)amino)hexyl)-1H-benzo[d]imidazole-5-carboxamide]
most effective dose, complete prevention of Aβ25–35 impairments in both tests [1]: 0.3 mg/kg | activity at hCB1R (in words) (hCB1R): devoid of activity | Ki′ (inhibition constant for the enzyme-substrate-inhibitor complex), in words (hAChE): submicromolar range | inhibition of Aβ42 self-aggregation (in words) (Aβ42): strongly inhibited | behaviour at hCB2R (in words) (hCB2R [2]): partial agonists | inhibition of hAChE-induced Aβ40 aggregation (in words) [3]: significantly reduce the proaggregating action of hAChE | neuroprotective behavior (in words) (HT-22 cells; [7]): low neuroprotective behavior | MIF and STAT-3 gene expression compared to vehicle [4]: decreased expression of both genes

CCOc1ccc(Cc2nc3cc(C(=O)NCCNc4c5c(nc6ccccc46)CCCC5)ccc3n2CCC(C)C)cc1 [4a, 2-(4-Ethoxybenzyl)-1-isopentyl-N-(2-((1,2,3,4-tetrahydroacridin-9-yl)amino)ethyl)-1H-benzo[d]imidazole-5-carboxamide]
most effective dose, complete prevention of Aβ25–35 impairments in both tests [1]: 1 mg/kg | necrosis positive/specimen (liver): 6/9 | necrosis reported area % (liver): 5–10% | IL1β release and iNOS expression (M1 markers) [5]: significantly decrease | NO release / nitrite accumulation [5]: reduced | TREM2 and TGFβ2 expression (M2 markers) [5]: not reduced | affinity at the μ-opioid receptor (in words) (μ-opioid receptor (MOR)): significant affinity

CCOc1ccc(Cc2nc3cc(C(=O)NCCCNc4c5c(nc6ccccc46)CCCC5)ccc3n2CCC(C)C)cc1 [4b, 2-(4-Ethoxybenzyl)-1-isopentyl-N-(3-((1,2,3,4-tetrahydroacridin-9-yl)amino)propyl)-1H-benzo[d]imidazole-5-carboxamide]
inhibition of Aβ42 self-aggregation (in words) (Aβ42): quite weak

CCOc1ccc(Cc2nc3cc(C(=O)NCCCCNc4c5c(nc6ccccc46)CCCC5)ccc3n2CCC(C)C)cc1 [4c, 2-(4-Ethoxybenzyl)-1-isopentyl-N-(4-((1,2,3,4-tetrahydroacridin-9-yl)amino)butyl)-1H-benzo[d]imidazole-5-carboxamide]
activity at hCB1R (in words) (hCB1R): devoid of activity | behaviour at hCB2R (in words) (hCB2R [2]): partial agonists | MIF and STAT-3 gene expression compared to vehicle [4]: decreased expression of both genes

CCOc1ccc(Cc2nc3cc(C(=O)NCCCCCCNc4c5c(nc6ccccc46)CCCC5)ccc3n2CCC(C)C)cc1 [4e, 2-(4-Ethoxybenzyl)-1-isopentyl-N-(6-((1,2,3,4-tetrahydroacridin-9-yl)amino)hexyl)-1H-benzo[d]imidazole-5-carboxamide]
affinity at the μ-opioid receptor (in words) (μ-opioid receptor (MOR)): significant affinity

Cc1c(C(=O)NN2CCCCC2)nn(-c2ccc(Cl)cc2Cl)c1-c1ccc(Cl)cc1 [Rimonabant]
[3H]CP 55,940 displ. @10 μM hCB2R (hCB2R [6]): 4%

CCOc1ccc(Cc2nc3cc(C(=O)NCCSSCCNc4c5c(nc6ccccc46)CCCC5)ccc3n2CCC(C)C)cc1 [compound 8, 2-(4-Ethoxybenzyl)-1-isopentyl-N-(2-((2-((1,2,3,4-tetrahydroacri-din-9-yl)amino)ethyl)disulfaneyl)ethyl)-1H-benzo[d]imidazole-5-carboxamide]
most effective dose, complete prevention of Aβ25–35 impairments in both tests [1]: 0.3 mg/kg | necrosis positive/specimen (liver): 8/11 | necrosis reported area % (liver): 5–50% | inhibition of Aβ42 self-aggregation (in words) (Aβ42): strongly inhibited | inhibition of hAChE-induced Aβ40 aggregation (in words) [3]: not able to significantly inhibit | neuroprotection at 5 μM (in words) (HT-22 cells; HT-22 cells, 5 mM glutamate, 5 μM compound): neuroprotection comparable to the positive control quercetin at 25 μM | concentration showing neuroprotection (HT-22 cells; [7]): ≥ 1 µM
